Source: patent US20090311217A1, “3-SUBSTITUTED-1H-INDOLE COMPOUNDS, THEIR USE AS MTOR KINASE AND PI3 KINASE INHIBITORS, AND THEIR SYNTHESES” (priority 2008, published 2009)
Where two headings read alike, the source gives them in different places.

Key:
[1] = molecular target: T1, human TOR (Homo sapiens, UniProt P42345); test: mTOR enzyme assay (DELFIA, His6-S6K substrate); assay type: biochemical
T1 construct: FLAG

[2] = molecular target: PI3K-alpha (Homo sapiens, UniProt P42336); test: PI3K-alpha fluorescence polarization assay; assay type: biochemical
[3] = molecular target: PI3K-gamma (Homo sapiens, UniProt P48736); test: PI3K-gamma fluorescence polarization assay; assay type: biochemical; conditions: PI3Kγ Avg. IC50
In short: (§1)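 FP displacement read-out: 100 nM GST-GRP1 PH domain plus 5 nM BODIPY-TMR-IP4 added after EDTA stop. Preceding kinase step: 5 ng enzyme, diC8-PI(4,5)P2 2.5 μM, ATP 25 μM, MgCl2 2.5 mM, HEPES 5 mM pH 7, one hour, 25° C.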

[4] = molecular target: PI3K-delta (Homo sapiens, UniProt O00329); test: PI3K-delta fluorescence polarization assay; assay type: biochemical; conditions: read-out: PI3Kδ Avg. IC50
[5] = molecular target: PI3K-beta (Homo sapiens, UniProt P42338); test: PI3K-beta fluorescence polarization assay; assay type: biochemical; conditions: read-out: PI3Kβ Avg. IC50
In short: as §1

[6] = read-out: mTOR Kinase Avg. IC50

Chain of PI3K-beta (P42338 whole entry, species assumed): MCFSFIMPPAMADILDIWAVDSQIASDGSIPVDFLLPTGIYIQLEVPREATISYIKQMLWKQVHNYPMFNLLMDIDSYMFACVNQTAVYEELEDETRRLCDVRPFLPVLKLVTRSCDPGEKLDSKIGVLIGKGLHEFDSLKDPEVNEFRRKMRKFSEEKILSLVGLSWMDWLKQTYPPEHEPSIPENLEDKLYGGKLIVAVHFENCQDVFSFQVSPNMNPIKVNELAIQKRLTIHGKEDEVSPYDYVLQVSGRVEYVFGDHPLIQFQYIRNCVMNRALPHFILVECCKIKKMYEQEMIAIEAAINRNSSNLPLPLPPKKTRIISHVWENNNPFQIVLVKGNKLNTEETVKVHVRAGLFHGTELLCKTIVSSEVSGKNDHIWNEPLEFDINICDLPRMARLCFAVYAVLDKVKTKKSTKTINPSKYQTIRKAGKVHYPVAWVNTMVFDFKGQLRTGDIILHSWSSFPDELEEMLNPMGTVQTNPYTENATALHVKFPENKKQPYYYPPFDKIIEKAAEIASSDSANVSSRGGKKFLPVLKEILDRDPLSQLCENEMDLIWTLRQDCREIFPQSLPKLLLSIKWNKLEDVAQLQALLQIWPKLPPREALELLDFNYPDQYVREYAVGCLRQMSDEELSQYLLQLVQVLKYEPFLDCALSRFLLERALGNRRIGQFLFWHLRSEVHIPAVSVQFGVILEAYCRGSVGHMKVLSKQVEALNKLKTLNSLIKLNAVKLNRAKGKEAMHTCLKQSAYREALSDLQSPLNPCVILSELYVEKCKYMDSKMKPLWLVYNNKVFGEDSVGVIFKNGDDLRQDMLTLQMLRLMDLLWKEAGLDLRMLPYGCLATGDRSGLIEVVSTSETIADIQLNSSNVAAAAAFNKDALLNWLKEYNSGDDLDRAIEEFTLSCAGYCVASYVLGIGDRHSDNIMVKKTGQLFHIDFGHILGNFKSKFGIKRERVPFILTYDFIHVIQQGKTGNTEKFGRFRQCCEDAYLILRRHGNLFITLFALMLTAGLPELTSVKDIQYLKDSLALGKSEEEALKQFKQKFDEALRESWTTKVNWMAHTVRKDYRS
Chain of PI3K-beta (P27986 whole entry partner, species assumed): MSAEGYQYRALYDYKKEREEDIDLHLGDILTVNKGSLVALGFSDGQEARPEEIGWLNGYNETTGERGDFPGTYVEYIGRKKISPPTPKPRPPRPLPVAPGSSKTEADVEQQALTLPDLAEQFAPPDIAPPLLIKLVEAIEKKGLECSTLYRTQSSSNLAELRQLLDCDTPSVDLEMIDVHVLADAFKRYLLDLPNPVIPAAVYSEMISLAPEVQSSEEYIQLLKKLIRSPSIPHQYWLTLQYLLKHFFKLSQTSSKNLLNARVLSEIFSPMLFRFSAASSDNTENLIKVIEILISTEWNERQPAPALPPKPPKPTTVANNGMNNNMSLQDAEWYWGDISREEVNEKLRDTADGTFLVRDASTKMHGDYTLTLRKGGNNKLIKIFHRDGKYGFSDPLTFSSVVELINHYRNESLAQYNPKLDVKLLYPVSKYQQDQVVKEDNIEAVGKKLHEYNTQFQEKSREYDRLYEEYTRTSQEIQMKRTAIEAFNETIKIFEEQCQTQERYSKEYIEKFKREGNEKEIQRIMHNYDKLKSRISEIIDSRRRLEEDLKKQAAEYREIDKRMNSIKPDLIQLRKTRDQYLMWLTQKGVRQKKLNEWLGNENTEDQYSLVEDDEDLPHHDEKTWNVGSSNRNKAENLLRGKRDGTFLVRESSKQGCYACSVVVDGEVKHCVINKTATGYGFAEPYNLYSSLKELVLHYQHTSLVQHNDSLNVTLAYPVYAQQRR
Chain of PI3K-delta (O00329 whole entry, species assumed): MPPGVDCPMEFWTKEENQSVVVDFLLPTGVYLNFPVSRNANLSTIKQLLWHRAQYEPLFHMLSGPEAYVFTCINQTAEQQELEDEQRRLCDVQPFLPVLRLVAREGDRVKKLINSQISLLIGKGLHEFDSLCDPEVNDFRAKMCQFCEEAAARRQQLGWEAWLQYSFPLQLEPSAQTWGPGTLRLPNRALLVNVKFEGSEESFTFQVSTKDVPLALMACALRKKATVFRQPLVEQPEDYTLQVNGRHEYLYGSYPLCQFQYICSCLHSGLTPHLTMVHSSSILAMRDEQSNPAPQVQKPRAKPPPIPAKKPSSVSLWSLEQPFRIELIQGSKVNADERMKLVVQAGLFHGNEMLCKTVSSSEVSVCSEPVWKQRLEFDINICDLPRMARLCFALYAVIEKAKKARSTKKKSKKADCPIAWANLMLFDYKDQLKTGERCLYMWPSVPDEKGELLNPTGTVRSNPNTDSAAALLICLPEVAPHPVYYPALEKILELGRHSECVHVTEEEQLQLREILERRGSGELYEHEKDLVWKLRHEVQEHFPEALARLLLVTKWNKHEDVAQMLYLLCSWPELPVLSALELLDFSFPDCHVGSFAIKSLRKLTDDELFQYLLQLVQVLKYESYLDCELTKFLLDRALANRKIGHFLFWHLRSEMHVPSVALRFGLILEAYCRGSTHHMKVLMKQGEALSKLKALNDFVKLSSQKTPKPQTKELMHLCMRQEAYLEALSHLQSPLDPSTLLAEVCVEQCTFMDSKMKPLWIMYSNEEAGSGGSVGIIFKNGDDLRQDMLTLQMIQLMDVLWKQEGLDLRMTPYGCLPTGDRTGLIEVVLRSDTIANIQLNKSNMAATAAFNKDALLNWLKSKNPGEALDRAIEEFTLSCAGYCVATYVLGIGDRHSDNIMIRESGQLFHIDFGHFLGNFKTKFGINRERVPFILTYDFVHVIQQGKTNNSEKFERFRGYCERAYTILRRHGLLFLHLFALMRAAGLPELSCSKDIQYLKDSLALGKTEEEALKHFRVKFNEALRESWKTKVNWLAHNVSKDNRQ
Chain of PI3K-delta (P27986 whole entry partner, species assumed): as the sequence (P27986 whole entry partner, species assumed) above
Chain of PI3K-gamma (P48736 whole entry, species assumed, the tested form may be a part): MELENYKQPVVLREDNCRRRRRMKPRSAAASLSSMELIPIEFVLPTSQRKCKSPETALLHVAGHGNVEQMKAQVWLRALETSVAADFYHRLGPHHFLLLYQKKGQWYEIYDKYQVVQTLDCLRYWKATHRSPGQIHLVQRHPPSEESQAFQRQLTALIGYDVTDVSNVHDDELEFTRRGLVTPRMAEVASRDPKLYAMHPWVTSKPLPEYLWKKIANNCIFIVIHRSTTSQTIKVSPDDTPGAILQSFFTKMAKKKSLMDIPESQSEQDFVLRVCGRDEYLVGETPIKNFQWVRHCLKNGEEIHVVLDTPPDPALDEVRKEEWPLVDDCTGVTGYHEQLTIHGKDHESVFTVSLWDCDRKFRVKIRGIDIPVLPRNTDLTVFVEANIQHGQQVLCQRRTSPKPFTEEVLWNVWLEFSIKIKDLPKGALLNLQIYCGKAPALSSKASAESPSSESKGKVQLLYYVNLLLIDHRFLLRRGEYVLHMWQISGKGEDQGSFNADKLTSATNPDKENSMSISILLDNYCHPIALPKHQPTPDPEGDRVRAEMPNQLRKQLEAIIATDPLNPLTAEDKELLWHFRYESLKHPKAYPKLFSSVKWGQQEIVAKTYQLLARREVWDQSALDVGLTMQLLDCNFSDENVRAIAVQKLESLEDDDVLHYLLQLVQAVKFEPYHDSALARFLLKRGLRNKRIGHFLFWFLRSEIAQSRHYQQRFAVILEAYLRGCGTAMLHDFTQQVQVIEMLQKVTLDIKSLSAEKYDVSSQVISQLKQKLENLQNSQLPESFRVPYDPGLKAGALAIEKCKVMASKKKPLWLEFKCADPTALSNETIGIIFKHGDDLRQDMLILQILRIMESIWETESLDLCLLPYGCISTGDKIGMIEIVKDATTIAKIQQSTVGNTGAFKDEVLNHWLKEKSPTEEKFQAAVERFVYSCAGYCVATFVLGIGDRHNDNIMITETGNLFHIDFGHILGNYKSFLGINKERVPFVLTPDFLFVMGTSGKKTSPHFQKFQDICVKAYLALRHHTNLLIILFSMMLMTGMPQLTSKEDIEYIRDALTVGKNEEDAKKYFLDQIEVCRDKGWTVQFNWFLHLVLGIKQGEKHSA
Chain of PI3K-alpha (P42336 whole entry, species assumed): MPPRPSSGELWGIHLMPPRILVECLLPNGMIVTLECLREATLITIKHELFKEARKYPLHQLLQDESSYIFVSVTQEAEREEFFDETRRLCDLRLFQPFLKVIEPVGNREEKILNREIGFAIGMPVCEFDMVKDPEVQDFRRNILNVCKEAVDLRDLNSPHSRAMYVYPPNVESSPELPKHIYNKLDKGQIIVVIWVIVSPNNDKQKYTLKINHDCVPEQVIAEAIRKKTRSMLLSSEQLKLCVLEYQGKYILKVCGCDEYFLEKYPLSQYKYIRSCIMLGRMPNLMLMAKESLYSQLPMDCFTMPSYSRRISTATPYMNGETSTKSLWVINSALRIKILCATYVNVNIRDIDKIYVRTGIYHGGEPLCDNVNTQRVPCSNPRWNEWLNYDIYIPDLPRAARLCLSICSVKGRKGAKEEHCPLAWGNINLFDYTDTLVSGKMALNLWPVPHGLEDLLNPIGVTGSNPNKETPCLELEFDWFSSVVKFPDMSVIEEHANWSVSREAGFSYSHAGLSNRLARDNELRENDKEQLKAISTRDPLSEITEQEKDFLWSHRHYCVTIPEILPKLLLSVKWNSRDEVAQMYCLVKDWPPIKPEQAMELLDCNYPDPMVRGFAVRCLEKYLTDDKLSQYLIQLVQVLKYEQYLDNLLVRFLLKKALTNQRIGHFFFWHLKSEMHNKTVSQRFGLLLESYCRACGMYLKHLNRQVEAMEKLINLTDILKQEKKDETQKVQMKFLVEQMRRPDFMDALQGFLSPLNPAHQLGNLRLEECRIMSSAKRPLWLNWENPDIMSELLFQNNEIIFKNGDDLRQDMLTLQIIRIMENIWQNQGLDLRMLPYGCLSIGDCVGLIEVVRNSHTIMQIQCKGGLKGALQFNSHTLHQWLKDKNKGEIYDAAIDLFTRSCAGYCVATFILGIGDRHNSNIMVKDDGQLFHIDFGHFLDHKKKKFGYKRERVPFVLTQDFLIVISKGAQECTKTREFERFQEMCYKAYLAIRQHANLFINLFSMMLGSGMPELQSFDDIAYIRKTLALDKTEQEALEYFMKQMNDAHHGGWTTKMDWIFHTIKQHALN
Chain of PI3K-alpha (P27986 whole entry partner, species assumed): as the sequence (P27986 whole entry partner, species assumed) above

Row | SMILES | melting point | IC50 [1, 6] | IC50 ([2]; read-out: PI3Kα Avg. IC50) | IC50 [3] | IC50 [4] | IC50 [5] | IC50 ([1]; mTOR Kinase Avg. IC50) | IC50 ([2]; PI3Kα Avg. IC50)
1 | COc1cc(O)c2c(c1)O/C(=C\c1c(-c3ccccc3)n(C)c3ccccc13)C2=O [Example 421, (2Z)-4-hydroxy-6-methoxy-2-[(1-methyl-2-phenyl-1H-indol-3-yl)methylene]benzofuran-3(2H)-one] | 221 to 223 °C | > 20000 nM | > 10000 nM | > 10000 nM | – | – | – | –
2 | COc1cc(OC)c2c(c1)O/C(=C\c1c(-c3ccccc3)n(C)c3ccccc13)C2=O [Example 409, (2Z)-4,6-dimethoxy-2-[(1-methyl-2-phenyl-1H-indol-3-yl)methylene]benzofuran-3(2H)-one] | 257 to 258 °C | > 20000 nM | > 10000 nM | 1990 nM | – | – | – | –
3 | COc1ccc2c(c1)c(/C=C1\Oc3cc(O)cc(O)c3C1=O)cn2CCN1CCC(O)C1 (centres unmarked) [Example 326, (2Z)-4,6-Dihydroxy-2-({1-[2-(3-hydroxypyrrolidin-1-yl)ethyl]-5-methoxy-1H-indol-3-yl}methylene)-1-benzofuran-3(2H)-one] | – | 540 nM | 58 nM | 150 nM | 9.5 nM | 88 nM | – | –
4 | COc1ccc2c(c1)c(C=C1Oc3cc(O)cc(O)c3C1=O)cn2CCCN1CCOCC1 [Example 112, 4,6-dihydroxy-2-{[5-methoxy-1-(3-morpholin-4-ylpropyl)-1H-indol-3-yl]methylene}-1-benzofuran-3(2H)-one] | – | – | – | 646 nM | 6 nM | 181 nM | 430 nM | 42 nM
5 | COc1ccc2c(c1)c(/C=C1\Oc3cc(O)ccc3C1=O)c(C)n2CCCN1CCCCCC1 [Example 358, (2Z)-2-{[1-(3-Azepan-1-ylpropyl)-5-methoxy-2-methyl-1H-indol-3-yl]methylene}-6-hydroxy-1-benzofuran-3(2H)-one] | – | > 800 nM | 7.5 nM | 239 nM | < 1 nM | 95.5 nM | – | –
6 | O=C1/C(=C/c2c(-c3ccc(F)cc3)[nH]c3ccccc23)Oc2c1ccc(O)c2O [Example 56, (2Z)-2-{[2-(4-fluorophenyl)-1H-indol-3-yl]methylene}-6,7-dihydroxy-1-benzofuran-3(2H)-one] | – | > 20000 nM | 190 nM | 1950 nM | 108 nM | 251 nM | – | –
7 | COc1ccc2c(c1)c(/C=C1\Oc3cc(O)cc(O)c3C1=O)c(C)n2CCn1ccnc1 [Example 328, (2Z)-4,6-Dihydroxy-2-({1-[2-(1H-imidazol-1-yl)ethyl]-5-methoxy-2-methyl-1H-indol-3-yl}methylene)-1-benzofuran-3(2H)-one] | – | < 24 nM | 6 nM | 15.5 nM | 2 nM | 2.5 nM | – | –
8 | COc1ccc2c(c1)c(C=C1Oc3cc(O)cc(O)c3C1=O)c(C)n2C [Example 89, 4,6-dihydroxy-2-[(5-methoxy-1,2-dimethyl-1H-indol-3-yl)methylene]-1-benzofuran-3(2H)-one] | – | 3.5 nM | – | 54.3 nM | 8 nM | 19 nM | – | 6.9 nM
9 | COc1ccc2c(c1)c(/C=C1\Oc3cc(O)ccc3C1=O)c(C)n2CCN1CCN(C)CC1 [Example 303, (2Z)-6-Hydroxy-2-({5-methoxy-2-methyl-1-[2-(4-methylpiperazin-1-yl)ethyl]-1H-indol-3-yl}methylene)-1-benzofuran-3(2H)-one] | – | 1.93 nM | 2.2 nM | 70 nM | < 2 nM | 3.5 nM | – | –
10 | O=C1/C(=C/c2c(-c3ccc(Cl)cc3)[nH]c3ccccc23)Oc2c1ccc(O)c2O [Example 54, (2Z)-2-{[2-(4-chlorophenyl)-1H-indol-3-yl]methylene}-6,7-dihydroxy-1-benzofuran-3(2H)-one] | – | 9600 nM | 111 nM | 1060 nM | 33.5 nM | 98 nM | – | –
11 | COc1ccc2c(c1)c(/C=C1\Oc3cc(O)cc(O)c3C1=O)c(-c1c(C)noc1C)n2CCN1CCN(C)CC1 [Example 344, (2Z)-2-({2-(3,5-Dimethylisoxazol-4-yl)-5-methoxy-1-[2-(4-methylpiperazin-1-yl)ethyl]-1H-indol-3-yl}methylene)-4,6-dihydroxy-1-benzofuran-3(2H)-one] | – | 5.25 nM | 4.4 nM | 99 nM | 0.9 nM | 5.9 nM | – | –
12 | COc1ccc2c(c1)c(/C=C1\Oc3cc(O)ccc3C1=O)c(C1CC1)n2CCn1cccn1 [Example 355, (2Z)-2-({2-Cyclopropyl-5-methoxy-1-[2-(1H-pyrazol-1-yl)ethyl]-1H-indol-3-yl}methylene)-6-hydroxy-1-benzofuran-3(2H)-one] | – | 13 nM | 8.6 nM | 36 nM | 2.5 nM | 17 nM | – | –
13 | COc1ccc2c(c1)c(/C=C1\Oc3cc(O)ccc3C1=O)c(C(=O)N(C)C)n2CCN1CCN(C)CC1 [Example 335, 3-[(Z)-(6-Hydroxy-3-oxo-1-benzofuran-2(3H)-ylidene)methyl]-5-methoxy-N,N-dimethyl-1-[2-(4-methylpiperazin-1-yl)ethyl]-1H-indole-2-carboxamide] | – | 1650 nM | 9 nM | 588 nM | 2 nM | 22 nM | – | –
14 | O=C1/C(=C/c2c(-c3ccc4ccccc4c3)[nH]c3ccccc23)Oc2c1ccc(O)c2O [Example 55, (2Z)-6,7-dihydroxy-2-{[2-(2-naphthyl)-1H-indol-3-yl]methylene}-1-benzofuran-3(2H)-one] | – | 10000 nM | 72.7 nM | 716 nM | 32 nM | 72 nM | – | –
15 | COc1ccc2c(c1)c(/C=C1\Oc3cc(O)cc(O)c3C1=O)c(C(=O)N(C)C)n2CCO [Example 348, 3-[(Z)-(4,6-Dihydroxy-3-oxo-1-benzofuran-2(3H)-ylidene)methyl]-1-(2-hydroxyethyl)-5-methoxy-N,N-dimethyl-1H-indole-2-carboxamide] | – | 17.5 nM | 11.5 nM | 60.5 nM | 12.5 nM | 76.5 nM | – | –
16 | COc1ccc2c(c1)c(C=C1Oc3cc(O)cc(O)c3C1=O)cn2CCCN(C)C [Example 114, 2-({1-[3-(dimethylamino)propyl]-5-methoxy-1H-indol-3-yl}methylene)-4,6-dihydroxy-1-benzofuran-3(2H)-one] | – | 2120 nM | – | 2420 nM | 11.5 nM | 221 nM | – | 40 nM
17 | COc1ccc2c(c1)c(/C=C1\Oc3cc(O)cc(O)c3C1=O)cn2CCO [Example 317, (2Z)-4,6-Dihydroxy-2-{[1-(2-hydroxyethyl)-5-methoxy-1H-indol-3-yl]methylene}-1-benzofuran-3(2H)-one] | – | 77.5 nM | 17 nM | 92.5 nM | 8.5 nM | 64 nM | – | –
18 | COc1ccc2c(c1)c(/C=C1\Oc3cc(O)cc(O)c3C1=O)cn2CCN1CCC(O)CC1 [Example 319, (2Z)-4,6-Dihydroxy-2-({1-[2-(4-hydroxypiperidin-1-yl)ethyl]-5-methoxy-1H-indol-3-yl}methylene)-1-benzofuran-3(2H)-one] | – | 265 nM | 38.3 nM | 117 nM | 3.5 nM | 108 nM | – | –
19 | COc1ccc2c(c1)c(C=C1Oc3cc(O)cc(O)c3C1=O)c(C)n2CCCN(C)C [Example 106, 2-({1-[3-(dimethylamino)propyl]-5-methoxy-2-methyl-1H-indol-3-yl}methylene)-4,6-dihydroxy-1-benzofuran-3(2H)-one] | – | 117 nM | 5.3 nM | 404 nM | 2 nM | 17.5 nM | – | –
20 | COc1ccc2c(c1)c(C=C1Oc3cc(O)cc(O)c3C1=O)c(C)n2CCCN1CCN(C)CC1 [Example 95, 4,6-dihydroxy-2-({5-methoxy-2-methyl-1-[3-(4-methylpiperazin-1-yl)propyl]-1H-indol-3-yl}methylene)-1-benzofuran-3(2H)-one] | – | 153 nM | – | 402 nM | 2 nM | 27 nM | – | 14.7 nM
21 | COc1ccc2c(c1)c(C=C1Oc3cc(O)cc(O)c3C1=O)c(C)n2CCCN1CCC(N(C)C)C1 (centres unmarked) [Example 104, 2-[(1-{3-[3-(dimethylamino)pyrrolidin-1-yl]propyl}-5-methoxy-2-methyl-1H-indol-3-yl)methylene]-4,6-dihydroxy-1-benzofuran-3(2H)-one] | – | 130 nM | 5.7 nM | 162 nM | 2.3 nM | 19 nM | – | –
22 | COc1ccc2[nH]c(-c3c(C)noc3C)c(/C=C3\Oc4cc(O)cc(O)c4C3=O)c2c1 [Example 360, (2Z)-2-{[2-(3,5-Dimethylisoxazol-4-yl)-5-methoxy-1H-indol-3-yl]methylene}-4,6-dihydroxy-1-benzofuran-3(2H)-one] | – | 1.25 nM | 1.5 nM | 3.2 nM | 0.3 nM | 1.3 nM | – | –
23 | O=C1/C(=C/c2c(-c3ccccc3)[nH]c3ccccc23)Oc2c1ccc(O)c2O [Example 53, (2Z)-6,7-dihydroxy-2-[(2-phenyl-1H-indol-3-yl)methylene]-1-benzofuran-3(2H)-one] | – | > 30000 nM | 182 nM | 1470 nM | 70.3 nM | 132 nM | – | –
